Reference: PubChem BioAssay AID1259407 (Chemical Carcinogenesis Research Information System (CCRIS), 2018)
Calls of active or inactive are those of the source. No rule for the calls is given here.

System: CCRIS mutagenicity, Ames/micronucleus/aberration tests
Assay: CCRIS mutagenicity studies
[1] = Test System: AMES SALMONELLA TYPHIMURIUM, Strain/Indicator: TA98, Metabolic Activation: NONE, Method: PREINCUBATION
[2] = Test System: AMES SALMONELLA TYPHIMURIUM, Strain/Indicator: TA98, Metabolic Activation: NONE, Method: STANDARD PLATE
[3] = Test System: AMES SALMONELLA TYPHIMURIUM, Strain/Indicator: TA100, Metabolic Activation: NONE, Method: PREINCUBATION
[4] = Test System: AMES SALMONELLA TYPHIMURIUM, Strain/Indicator: TA100, Metabolic Activation: NONE, Method: STANDARD PLATE

Measured: mutagenic call

c1cnccn1
inactive: Test System: AMES SALMONELLA TYPHIMURIUM, Strain/Indicator: TA98, Metabolic Activation: HAMSTER, LIVER, S-9, AROCLOR 1254, Method: STANDARD PLATE inactive; negative | [1] inactive; negative | [2] inactive; negative | Test System: AMES SALMONELLA TYPHIMURIUM, Strain/Indicator: TA98, Metabolic Activation: RAT, LIVER, S-9, AROCLOR 1254, Method: PREINCUBATION inactive; negative | Test System: AMES SALMONELLA TYPHIMURIUM, Strain/Indicator: TA98, Metabolic Activation: RAT, LIVER, S-9, AROCLOR 1254, Method: STANDARD PLATE inactive; negative | Test System: AMES SALMONELLA TYPHIMURIUM, Strain/Indicator: TA98, Metabolic Activation: RAT, LIVER, S-9, PCB, Method: PREINCUBATION inactive; negative | Test System: AMES SALMONELLA TYPHIMURIUM, Strain/Indicator: TA100, Metabolic Activation: HAMSTER, LIVER, S-9, AROCLOR 1254, Method: STANDARD PLATE inactive; negative | [3] inactive; negative | [4] inactive; negative | Test System: AMES SALMONELLA TYPHIMURIUM, Strain/Indicator: TA100, Metabolic Activation: RAT, LIVER, S-9, AROCLOR 1254, Method: PREINCUBATION inactive; negative | Test System: AMES SALMONELLA TYPHIMURIUM, Strain/Indicator: TA100, Metabolic Activation: RAT, LIVER, S-9, AROCLOR 1254, Method: STANDARD PLATE inactive; negative | Test System: AMES SALMONELLA TYPHIMURIUM, Strain/Indicator: TA100, Metabolic Activation: RAT, LIVER, S-9, PCB, Method: PREINCUBATION inactive; negative | Test System: AMES SALMONELLA TYPHIMURIUM, Strain/Indicator: TA102, Metabolic Activation: NONE, Method: PREINCUBATION inactive; negative | Test System: AMES SALMONELLA TYPHIMURIUM, Strain/Indicator: TA102, Metabolic Activation: RAT, LIVER, S-9, AROCLOR 1254, Method: PREINCUBATION inactive; negative | Test System: AMES SALMONELLA TYPHIMURIUM, Strain/Indicator: TA1535, Metabolic Activation: HAMSTER, LIVER, S-9, AROCLOR 1254, Method: STANDARD PLATE inactive; negative | Test System: AMES SALMONELLA TYPHIMURIUM, Strain/Indicator: TA1535, Metabolic Activation: NONE, Method: STANDARD PLATE inactive; negative | Test System: AMES SALMONELLA TYPHIMURIUM, Strain/Indicator: TA1535, Metabolic Activation: RAT, LIVER, S-9, AROCLOR 1254, Method: STANDARD PLATE inactive; negative | Test System: AMES SALMONELLA TYPHIMURIUM, Strain/Indicator: TA1537, Metabolic Activation: HAMSTER, LIVER, S-9, AROCLOR 1254, Method: STANDARD PLATE inactive; negative | Test System: AMES SALMONELLA TYPHIMURIUM, Strain/Indicator: TA1537, Metabolic Activation: NONE, Method: STANDARD PLATE inactive; negative | Test System: AMES SALMONELLA TYPHIMURIUM, Strain/Indicator: TA1537, Metabolic Activation: RAT, LIVER, S-9, AROCLOR 1254, Method: STANDARD PLATE inactive; negative | Test System: AMES SALMONELLA TYPHIMURIUM, Strain/Indicator: TA1538, Metabolic Activation: HAMSTER, LIVER, S-9, AROCLOR 1254, Method: STANDARD PLATE inactive; negative | Test System: AMES SALMONELLA TYPHIMURIUM, Strain/Indicator: TA1538, Metabolic Activation: NONE, Method: STANDARD PLATE inactive; negative | Test System: AMES SALMONELLA TYPHIMURIUM, Strain/Indicator: TA1538, Metabolic Activation: RAT, LIVER, S-9, AROCLOR 1254, Method: STANDARD PLATE inactive; negative | Test System: MOUSE LYMPHOMA, Strain/Indicator: L5178Y (TK+/TK-), Metabolic Activation: NONE, Method: SUSPENSION/PLATE inactive; negative. reevaluation of results: negative | Test System: MOUSE LYMPHOMA, Strain/Indicator: L5178Y (TK+/TK-), Metabolic Activation: RAT, LIVER, S-9, AROCLOR 1254, Method: SUSPENSION/PLATE inactive; negative. reevaluation of results: negative

Nc1cc(Cl)cc(Cl)c1O
inactive: [1] inactive; negative | [2] inactive; negative | [3] inactive; negative | [4] inactive; negative | Test System: CHINESE HAMSTER V-79, Strain/Indicator: V-79/6-THIOGUANINE, Metabolic Activation: NONE inactive; negative
